Values joined by “and” are separate entries in the source; they are usually repeats but may differ in a detail not shown here. Equal values may be shown once. Inconclusive results and toxic doses are left out.
Tested on: L1210 leukemia ip in BDF1 mice, survival T/C
Experiment: NCI In Vivo Anticancer Drug Screen. Data for tumor model L1210 Leukemia (intraperitoneal) in B6D2F1 (BDF1) mice
Conditions: endpoint: mean survival time, higher = longer survival
How it was run: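 Ratio derived from survival: compound-dosed mice over vehicle-dosed mice, all bearing a transplantable tumor.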

[1] = dose: 100.0 mg/kg/injection, schedule: Q01DX009 (ip), vehicle: Klucel (hydroxypropylcellulose) (HPC)
[2] = dose: 200.0 mg/kg/injection, schedule: Q01DX009 (ip), vehicle: Klucel (hydroxypropylcellulose) (HPC)
[3] = dose: 400.0 mg/kg/injection, schedule: Q01DX009 (ip), vehicle: Klucel (hydroxypropylcellulose) (HPC)
[4] = dose: 100.0 mg/kg/injection, schedule: Q04DX003 (ip), vehicle: Klucel (hydroxypropylcellulose) (HPC)
[5] = dose: 200.0 mg/kg/injection, schedule: Q04DX003 (ip), vehicle: Klucel (hydroxypropylcellulose) (HPC)
[6] = dose: 400.0 mg/kg/injection, schedule: Q04DX003 (ip), vehicle: Klucel (hydroxypropylcellulose) (HPC)
[7] = dose: 50.0 mg/kg/injection, schedule: Q04DX003 (ip), vehicle: saline
[8] = dose: 100.0 mg/kg/injection, schedule: Q04DX003 (ip), vehicle: saline
[9] = dose: 400.0 mg/kg/injection, schedule: Q04DX003 (ip), vehicle: saline
[10] = dose: 50.0 mg/kg/injection, schedule: Q01DX009 (ip), vehicle: saline with Tween-80
[11] = dose: 100.0 mg/kg/injection, schedule: Q01DX009 (ip), vehicle: saline with Tween-80
[12] = dose: 200.0 mg/kg/injection, schedule: Q01DX009 (ip), vehicle: saline with Tween-80
[13] = dose: 75.0 mg/kg/injection, schedule: Q01DX001 (ip), vehicle: saline
[14] = dose: 150.0 mg/kg/injection, schedule: Q01DX001 (ip), vehicle: saline
[15] = dose: 200.0 mg/kg/injection, schedule: Q04DX003 (ip), vehicle: saline
[16] = dose: 100.0 mg/kg/injection, schedule: Q01DX001 (ip), vehicle: saline
[17] = dose: 200.0 mg/kg/injection, schedule: Q01DX001 (ip), vehicle: saline
[18] = dose: 400.0 mg/kg/injection, schedule: Q01DX001 (ip), vehicle: saline

OB(O)C1=CC(c2ccccc2)(c2ccccc2)N=C1
T/C (dose: 100.0 mg/kg/injection, schedule: Q01DX001 (ip), vehicle: Klucel (hydroxypropylcellulose) (HPC)): 103 % of control | T/C (dose: 200.0 mg/kg/injection, schedule: Q01DX001 (ip), vehicle: Klucel (hydroxypropylcellulose) (HPC)): 94 % of control | T/C (dose: 400.0 mg/kg/injection, schedule: Q01DX001 (ip), vehicle: Klucel (hydroxypropylcellulose) (HPC)): 92 % of control

CC1CCC2(NC1)OC1CC3C4CCC5CC(O)CCC5(C)C4CCC3(C)C1C2C (centres undefined)
T/C (dose: 100.0 mg/kg/injection, schedule: Q01DX001 (ip), vehicle: other): 94 % of control | T/C (dose: 200.0 mg/kg/injection, schedule: Q01DX001 (ip), vehicle: other): 91 % of control | T/C (dose: 400.0 mg/kg/injection, schedule: Q01DX001 (ip), vehicle: other): 94 % of control

COc1ccc([N+](=O)[O-])cc1NC(=O)Nc1ccc(F)c([N+](=O)[O-])c1
T/C [1]: 98 % of control | T/C [2]: 95 % of control | T/C [3]: 95 % of control

O=C(O)CCC(=O)Nc1ccc(S(=O)(=O)Nc2nccs2)cc1
T/C (dose: 3.5 mg/kg/injection, schedule: Q01DX009 (ip), vehicle: Klucel (hydroxypropylcellulose) (HPC)): 93 % of control | T/C (dose: 5.3 mg/kg/injection, schedule: Q01DX009 (ip), vehicle: Klucel (hydroxypropylcellulose) (HPC)): 93 % of control | T/C (dose: 8.0 mg/kg/injection, schedule: Q01DX009 (ip), vehicle: Klucel (hydroxypropylcellulose) (HPC)): 91 % of control | T/C [1]: 94 % of control | T/C [4]: 101 % of control | T/C [2]: 98 % of control | T/C [5]: 103 % of control | T/C [3]: 94 % of control | T/C [6]: 97 % of control

Nc1nc2ncc(C(=O)O)nc2c(=O)[nH]1
T/C [7]: 98 % of control | T/C [8]: 97 % of control and 104 % of control | T/C [9]: 105 % of control

O=c1oc(-c2cccc([N+](=O)[O-])c2)nc2ccccc12
T/C [10]: 97 % of control | T/C [11]: 94 % of control | T/C [12]: 93 % of control

Nc1nc(N)c2nc(CN3CCCc4cc(C(=O)NC(CCC(=O)O)C(=O)O)ccc43)cnc2n1 (centres undefined)
T/C [8]: 207 % of control

O=NN(CCCl)C(=O)NC1CCC(Br)CC1 (centres undefined)
T/C (dose: 10.0 mg/kg/injection, schedule: Q01DX001 (ip), vehicle: saline with Tween-80): 122 % of control | T/C (dose: 22.0 mg/kg/injection, schedule: Q01DX001 (ip), vehicle: saline with Tween-80): 150 % of control | T/C (dose: 33.5 mg/kg/injection, schedule: Q01DX001 (ip), vehicle: saline with Tween-80): 197 % of control | T/C (dose: 50.0 mg/kg/injection, schedule: Q01DX001 (ip), vehicle: saline with Tween-80): 455 % of control | T/C (dose: 75.0 mg/kg/injection, schedule: Q01DX001 (ip), vehicle: saline with Tween-80): 455 % of control | T/C (dose: 112.0 mg/kg/injection, schedule: Q01DX001 (ip), vehicle: saline with Tween-80): 420 % of control | T/C (dose: 252.0 mg/kg/injection, schedule: Q01DX001 (ip), vehicle: saline with Tween-80): 208 % of control

Cc1ccc(Nc2c3ccccc3nc3ccccc23)cc1
T/C (dose: 18.0 mg/kg/injection, schedule: Q01DX009 (ip), vehicle: saline with Tween-80): 100 % of control | T/C (dose: 37.5 mg/kg/injection, schedule: Q01DX009 (ip), vehicle: saline with Tween-80): 110 % of control | T/C (dose: 40.0 mg/kg/injection, schedule: Q04DX003 (ip), vehicle: saline with Tween-80): 96 % of control | T/C (dose: 65.0 mg/kg/injection, schedule: Q04DX003 (ip), vehicle: saline with Tween-80): 106 % of control | T/C [13]: 100 % of control (2×) and 105 % of control | T/C (dose: 75.0 mg/kg/injection, schedule: Q01DX009 (ip), vehicle: saline with Tween-80): 113 % of control | T/C (dose: 75.0 mg/kg/injection, schedule: Q04DX003 (ip), vehicle: saline with Tween-80): 100 % of control | T/C (dose: 95.0 mg/kg/injection, schedule: Q04DX003 (ip), vehicle: saline with Tween-80): 123 % of control | T/C [14]: 118 % of control | T/C (dose: 150.0 mg/kg/injection, schedule: Q04DX003 (ip), vehicle: saline with Tween-80): 107 % of control and 88 % of control | T/C (dose: 225.0 mg/kg/injection, schedule: Q04DX003 (ip), vehicle: saline with Tween-80): 118 % of control

CCC(C)C(CCCCN1CCCC1)(CNC(=O)CN(CC)CC)c1cccc2ccccc12 (centres undefined)
T/C (dose: 12.5 mg/kg/injection, schedule: Q01DX009 (ip), vehicle: saline): 95 % of control | T/C (dose: 12.5 mg/kg/injection, schedule: Q04DX003 (ip), vehicle: saline): 92 % of control | T/C (dose: 25.0 mg/kg/injection, schedule: Q01DX009 (ip), vehicle: saline): 101 % of control | T/C (dose: 25.0 mg/kg/injection, schedule: Q04DX003 (ip), vehicle: saline): 93 % of control | T/C (dose: 50.0 mg/kg/injection, schedule: Q01DX009 (ip), vehicle: saline): 106 % of control | T/C [7]: 92 % of control

COc1cccc2c1C(=O)c1c(O)c3c(c(O)c1C2=O)C[C@@](O)(C(=O)CO)C[C@@H]3OC1CC(NC(=S)Nc2ccc(F)cc2)C(O)C(C)O1 (some centres undefined)
T/C [8]: 111 % of control | T/C [15]: 106 % of control | T/C [9]: 104 % of control

CC(=O)OCCOC(C)=O
T/C [16]: 103 % of control | T/C [17]: 97 % of control | T/C [18]: 94 % of control

CNC(=O)Nc1cccc(OC(=O)NC(C)(C)C)c1
T/C [11]: 91 % of control | T/C [12]: 93 % of control

CC(C)Oc1c(N(C)CCO)c2cc(Cl)ccc2oc1=O
T/C (dose: 100.0 mg/kg/injection, schedule: Q04DX003 (ip), vehicle: saline with Tween-80): 95 % of control | T/C (dose: 200.0 mg/kg/injection, schedule: Q04DX003 (ip), vehicle: saline with Tween-80): 101 % of control

O=C(c1ccccc1)c1c2ccccc2c(C(=O)c2ccccc2)c2ccccc12
T/C [1]: 104 % of control | T/C [4]: 103 % of control | T/C [2]: 97 % of control | T/C [5]: 100 % of control | T/C [3]: 97 % of control | T/C [6]: 99 % of control

Nc1nc(=S)c2[nH]c(N=Nc3ccc(S(=O)(=O)O)cc3)nc2[nH]1
T/C (dose: 25.0 mg/kg/injection, schedule: Q01DX009 (ip), vehicle: Klucel (hydroxypropylcellulose) (HPC)): 100 % of control | T/C (dose: 50.0 mg/kg/injection, schedule: Q01DX009 (ip), vehicle: Klucel (hydroxypropylcellulose) (HPC)): 102 % of control | T/C (dose: 50.0 mg/kg/injection, schedule: Q04DX003 (ip), vehicle: Klucel (hydroxypropylcellulose) (HPC)): 114 % of control | T/C [1]: 102 % of control | T/C [4]: 153 % of control

CC(=O)N(C)c1ccc(NC(=O)c2c(Br)c(Br)c(Br)c(Br)c2C(=O)O)cc1
T/C [1]: 98 % of control | T/C [2]: 89 % of control | T/C [3]: 105 % of control

O=C1c2ccccc2C(=O)c2c(O)c(Cc3ccccc3)cc(O)c21
T/C [8]: 105 % of control | T/C [15]: 97 % of control | T/C [9]: 97 % of control

COc1ccc(NCCOc2ccccc2Br)cc1
T/C (dose: 100.0 mg/kg/injection, schedule: Q01DX009 (ip), vehicle: other): 96 % of control | T/C (dose: 200.0 mg/kg/injection, schedule: Q01DX009 (ip), vehicle: other): 96 % of control | T/C (dose: 400.0 mg/kg/injection, schedule: Q01DX009 (ip), vehicle: other): 104 % of control

CC(C)C1N=C(N)N=C(N)N1c1ccc(Cl)c(Cl)c1 (centres undefined)
T/C [13]: 105 % of control | T/C [14]: 96 % of control

C/[N+]([O-])=N\Nc1c(Br)cc(Br)cc1Br
T/C [10]: 105 % of control | T/C [11]: 102 % of control | T/C [12]: 105 % of control

O=[N+]([O-])c1ccc(/C=N/c2nn[nH]n2)cc1 (tested in a mixture with another compound)
T/C [8]: 98 % of control | T/C [15]: 100 % of control | T/C [9]: 96 % of control

CCOC(=O)NC(=S)[S][Sb]([S]C(=S)NC(=O)OCC)[S]c1nc2ccc(N=Nc3ccc(NS(=O)(=O)c4ccc(NC(=O)C(Sc5ncnc6nc[nH]c56)SC5N=C=Nc6nc[nH]c65)cc4)cc3)cc2s1 (centres undefined)
T/C (dose: 75.0 mg/kg/injection, schedule: Q04DX003 (ip), vehicle: saline): 100 % of control | T/C (dose: 150.0 mg/kg/injection, schedule: Q04DX003 (ip), vehicle: saline): 91 % of control | T/C (dose: 300.0 mg/kg/injection, schedule: Q04DX003 (ip), vehicle: saline): 98 % of control

Nc1cc(=O)[nH]c(=S)n1-c1ccc(Br)cc1
T/C (dose: 50.0 mg/kg/injection, schedule: Q01DX001 (ip), vehicle: saline): 93 % of control | T/C [16]: 102 % of control | T/C [17]: 93 % of control | T/C [18]: 108 % of control
